Legend:
CF rabbits [1] = assay: Intravenous glucose tolerance test (IVGTT) in CF rabbits treated with LX4211; assay type: in vivo, rabbit; conditions: FIG. 1
Method: (§1) ) has beneficial effects on treating CF, 5 CF rabbits were daily gavaged with LX4211 (15 mg/kg/day) for 4 weeks. The intravenous glucose tolerance test (IVGTT) and insulin tolerance test (ITT) were performed before treatment and at 4 weeks after treatment. Urine was collected daily to assess urinary glucose excretion. Blood was collected biweekly for the analysis of chemical panels including glucose, insulin, liver function, kidney function, lipid profiles and electrolytes. At the end of the experiment, the organ tissues of CF rabbits were collected for histology staining.

CF rabbits [2] = assay: Urinary glucose excretion in CF rabbits treated with LX4211; assay type: in vivo, rabbit; conditions: 15 mg/kg/day daily gavage
Method: as §1

CF rabbits [3] = assay: Blood chemical panels in CF rabbits treated with LX4211; assay type: in vivo, rabbit
Method: as §1
Abnormalities of serum ALP, CPK and Calcium were also detected in CF rabbits.

CF rabbits [4] = assay type: in vivo, rabbit
Method: as §1
Because most CF rabbits eventually die of gut obstruction for which abdominal hardening (which can be felt by palpation) has been used as a clinical sign, such softening may indicate beneficial effects on alleviating GI obstruction, although further studies are needed to confirm this predication.

CF rabbits [5] = assay: Survival length of CF rabbits treated with LX4211; assay type: in vivo, rabbit; conditions: FIG. 3
WT rabbits = assay: Urine sugar levels in WT rabbits after Sota treatment; assay type: in vivo, rabbit; conditions: WT rabbits (n=2)
Method: Experiments were conducted that first examined the physiological responses of rabbits to Sota by measuring the urine sugar levels to assess urinary glucose excretion (FIG. 9). Sota was given to WT rabbits (n=2) daily for five days. […] This confirmed that rabbits respond to Sota similarly as rodents and human patients.

CF rabbits [6] = assay: IVGTT in CF rabbits prior to and after Sota treatment; assay type: in vivo, rabbit; conditions: CF rabbits (n=6), 15 mg/kg/day daily gavage 4 weeks, vs non-treatment, FIGS. 10B & C
Method: Experiments were conducted that next proceeded to treat CF rabbits (n=6) with Sota (15 mg/kg/day) by daily gavage for 4 weeks (FIG. 10A). The IVGTT test was performed prior to and 4 weeks after treatment.

CF rabbits [7] = assay: Blood chemistry of CF rabbits treated with Sota for 10 weeks; assay type: in vivo, rabbit; conditions: 5 CF rabbits treated 10 weeks vs untreated control group, FIG. 11
Excerpt: It is known that many CF patients show abnormalities in their blood chemistry tests. Blood chemistry in CF rabbits was also examind. In one study, blood was collected from 5 CF rabbits for the analysis of chemical panels including electrolytes, glucose and other metabolic parameters, and compared with those of WT rabbits (n=15). CF rabbits presented many abnormalities in metabolic parameters including lower serum potassium (WT 4.35±0.25 vs. CF 3.14±0.3, p<0.05), higher triglyceride (WT 75.8±69.5 vs. CF 447.0±76.6, p<0.05), cholesterol (WT 31.6±9.76 vs. CF 177.2±206.3, p<0.05) and glucose (WT 110.4±9.99 vs. CF 160.6±37.5, p<0.05). Abnormalities of serum ALP, CPK and Calcium were also detected in CF rabbits.
To evaluate if Sota has any effects on the blood chemistry parameters of CF rabbits, experiments were conducted wherein 5 CF rabbits were treated with Sota for 10 weeks.

CF rabbits [8] = assay: Lifespan (survival curve) of Sota-treated CF rabbits; assay type: in vivo, rabbit; conditions: treatment starting on Day 49 of age
Excerpt: This is further supported by the elongated lifespan of Sota-treated CF rabbits. […] These findings indicate that contrary to the beliefs by many, the SGLT inhibitor drugs are indicative of bringing benefits with minimal risks to CF patients.

[9] = rabbit, in vivo

With Sotagliflozin [LX4211] the glucose tolerance (CF rabbits [1]; CF rabbits, 15 mg/kg/day, before vs 4 weeks after treatment) was “restored glucose tolerance”, the “GTT response of one CF rabbit with signs of CF related diabetes (CFRD)” value (CF rabbits [1]; one CF rabbit, prior to vs after treatment) was “restored to normal” and the urine glucose levels (CF rabbits [2]) was “spiked starting D1 after the treatment”. The CPK (CF rabbits [3]; 15 mg/kg/day, FIG. 4) was “significant rescue effects”, the Calcium (CF rabbits [3]; 15 mg/kg/day, FIG. 4) was “significant rescue effects” and the cholesterol (CF rabbits [3]; 15 mg/kg/day, FIG. 4) was “significant rescue effects”. For the same substance, the triglyceride (CF rabbits [3]; 15 mg/kg/day, FIG. 4) was “significant rescue effects”, the “hyperglycemia (glucose)” value (CF rabbits [3]; 15 mg/kg/day, FIG. 4, FIG. 5) was “significantly attenuated” and the “hypokalemia (serum potassium)” value (CF rabbits [3]; 15 mg/kg/day, FIG. 4, FIG. 5) was “significantly attenuated”. The “ALB (Albumin)” value (CF rabbits [3]; FIG. 6) was “restored”, the “TPRO (Total Protein)” value (CF rabbits [3]; FIG. 6) was “restored” and the daily abdominal palpation (CF rabbits [4]; CF rabbits, 15 mg/kg/day daily gavage, abdominal hardening is a clinical sign of gut obstruction) was “softening of the abdominal”. For the same substance, the “adverse response to treatment” value (CF rabbits [4]; rabbit, in vivo, 15 mg/kg/day) was “no obvious adverse response”, the survival length (CF rabbits [5]) was “improved survival length” and the “urine sugar level upon retrieval of the drug” value (WT rabbits; D7, FIG. 9) was “immediately returned to normal”. The “urine sugar level during treatment” value (WT rabbits; daily for five days, D1-D5, FIG. 9) was “spike of urine sugar level was seen the second day (D1) and remained high during the treatment days”, the “blood glucose elimination rate (IVGTT)” value (CF rabbits [6]) was “significantly higher” and the ALP (CF rabbits [7]) was “significantly improved”. For the same substance, the CPK (CF rabbits [7]) was “significantly improved”, the Chol (CF rabbits [7]) was “significantly improved” and the Glucose (CF rabbits [7]) was “significantly improved”. The “K+” value (CF rabbits [7]) was “significantly improved”, the Trig (CF rabbits [7]) was “significantly improved” and the median lifespan (CF rabbits [8]; CF rabbits (n=10), FIG. 12 right panel) was over 150 days. The “number of treated CF rabbits that lived beyond 150 days” value (CF rabbits [8]; of n=10 CF rabbits) was 6 and the weight gain [9] was “gained weight at a similar rate”.
